Measurements from publication PMC11150261, “Evaluation of antibacterial, cytotoxicity, and apoptosis activity of novel chromene-sulfonamide hybrids synthesized under solvent-free conditions and 3D-QSAR modeling studies” (Scientific Reports, 2024).
≈ marks a conversion by molar mass, not a printed value. Entries after “also recorded” stand apart in the source; their conditions may differ. Read-outs that look alike come from different tables or passages of the source.

Columns and labels:
S. aureus ATCC 25923 = assay: Broth microdilution MIC; assay type: cell-based; details: for MIC: Staphylococcus aureus, ATCC25923; for MIC effect on S. aureus: SAR effect diagram, Table 6
Method: (§1) A broth microdilution method was utilized to explore the minimum inhibitory concentrations (MIC) of all the newly synthesized compounds against E. coli ATCC 25922 and S. aureus ATCC 25923. Test compounds were prepared using dimethyl sulfoxide (DMSO) as a stock solution, followed by serial dilutions in Mueller Hinton broth containing up to one percent DMSO. At the end, a diluted bacterial suspension from a 0.5 McFarland tube was added to all the wells (the final volume of each well was 1 × 10^5 CFU/ml). In the growth control, a culture medium with bacteria was used as a positive control, and a culture medium without bacteria was used as a negative control (sterility control). The MIC was the lowest concentration of the synthesized compounds that produced no growth on the plate. Sulfisoxazole, functioning as a sulfonamide antibiotic, and gentamicin were employed in a comparative analysis of antibacterial activity, cytotoxicity, and apoptosis assessment.

E. coli ATCC 25922 = assay: Broth microdilution MIC; assay type: cell-based; details: for MIC: Escherichia coli, ATCC25922; for MIC effect on E. coli: SAR effect diagram
Method: as §1

fibroblast L929 cells = assay: Cytotoxicity assay by MTT; assay type: cell-based; details: Mus musculus, fibroblast L929 cell line, 24 h
Method: MTT was applied to evaluate the cytotoxicity of the newly synthesized compounds against fibroblast L929 cells (Pasteur Institute, Tehran, Iran). Briefly, 100 μl of cell suspension (1 × 10^4 cells/well) in RPMI 1640 medium, as seeded in 96-well microplates and incubated for 24 h (37 °C, 5% CO2 air humidified). After removing the old media, 100 µl of each of the newly synthesized compounds was added to each well at different concentrations. The plates were incubated for another 24 h in the same condition. To determine the positive and negative controls, doxorubicin and DMSO were used. Cell survival was determined by adding 10 µL of an MTT solution (5 mg/ml in PBS) to each well and incubating at 37 °C for 3 h. The previous MTT-containing media was then removed, and 100 µL DMSO was pipetted into each well to dissolve the produced formazan crystals. Using an ELISA plate reader (Startfix-2100, Awareness, USA), absorbance was measured at 570 nm. By plotting the percentage of cytotoxicity versus concentration of the produced compounds, the concentrations that inhibit half of the cell population (IC50) were determined. A mean and standard deviation (SD) are used to represent the results. The percentage cell viability was calculated using the formula: Viability=Absorbance \, of \, treated \, cells-background \, absorbance(b)/Absorbance \, of \, untreated \, cells(c)-background \, absorbance(b)×100 where (b) = blank, and (c) = control.

[1] = test system: fibroblast L929 cell line; assay: Apoptosis Annexin V binding assay (flow cytometry); assay type: cell-based; details: for induced cell death: L929 cells, 24 h, IC50 concentration of each compound
Method: (§2) To detect apoptosis, the Annexin V binding assay was used. The assay was performed according to the manufacturer's instructions using a FITC Annexin V Apoptosis Detection Kit with PI from BioLegend® (San Diego, California). To conduct this test, the fibroblast L929 cell line (Pasteur Institute, Tehran, Iran) was treated with various concentrations of the newly synthesized compounds and then incubated for 24 h at 37 °C with 5% CO2. Subsequently, each well's supernatant was removed and the cells were washed with PBS. Each well was then filled with 500 μl of Annexin-binding buffer (10 mM HEPES, 140 mM NaCl, and 2.5 mM CaCl2, pH 7.4) and 10 μl of Annexin V and PI. For 15 min, the plates were incubated at room temperature and kept away from light. After incubation, using a BD FACSCalibur flow cytometer (Biosciences, San Jose, CA, USA), the cells were examined after incubation. FlowJo software (version 10.5.3, TreeStar Incorporated, Ashland, OR) was used to analyze flow cytometry data.

[2] = Apoptosis Annexin V binding assay (flow cytometry); assay type: cell-based; details: mouse, L929 fibroblast cells; L929, IC50 concentration, Annexin V-FITC/PI
Method: as §2

[3] = microdilution method, read-out: Minimum inhibitory concentrations (MIC) S. aureus ATCC 25923
[4] = microdilution method, read-out: Minimum inhibitory concentrations (MIC) E. coli ATCC 25922
[5] = Table 7, read-out: MIC for S. aureus
[6] = Table 6, antibacterial activity against E. coli, read-out: MIC for E. coli ATCC 25922

SMILES | MIC (S. aureus ATCC 25923; [3]) [µg/mL] | MIC (E. coli ATCC 25922; [4]) [µg/mL] | IC50 (fibroblast L929 cells) [µg/mL] | apoptotic effects ([1]; at the IC50 concentration) | antibacterial effect on S. aureus (MIC results) (S. aureus ATCC 25923) | MIC effect on S. aureus (S. aureus ATCC 25923) | MIC (S. aureus ATCC 25923; [5]) [µg/mL] | antibacterial effect on E. coli (MIC results) (E. coli ATCC 25922) | MIC (E. coli ATCC 25922; [6]) [µg/mL] | MIC effect on E. coli (E. coli ATCC 25922) | induced cell death [1] [%] | viability at 24 h [2] [%] | melting point [°C]
CNC(C)C1CCC(N)C(OC2C(N)CC(N)C(OC3OCC(C)(O)C(NC)C3O)C2O)O1 (stereo not drawn) [Gentamicin, reference compound] | 4 (≈ 8.38 µM) | 4 (≈ 8.38 µM) | 182 (≈ 381 µM) | neither Sulfisoxazole nor Gentamicin demonstrated apoptotic effects | – | – | – | – | – | – | – | – | –
CC(=O)Nc1ccc(S(=O)(=O)Nc2ccc3c(c2)OC(N)=C(C#N)C3c2cccc(Oc3ccccc3)c2)cc1 (stereo not drawn) [6b, N-[4-[2-amino-3-cyano-4-(3-phenoxy-phenyl)-4H-chromene-7-ylsulfamoyl]-phenyl}-acetamide] | 256 (≈ 463 µM) | 64 (≈ 116 µM) | 114 (≈ 206 µM) | – | robust antibacterial effect | Neutral | 256 (≈ 463 µM) | robust antibacterial effect | 64 (≈ 116 µM) | Positive | 53.85 | 46 | –
Cc1ccc(S(=O)(=O)Nc2ccc3c(c2)OC(N)=C(C#N)C3c2ccc(Cl)cc2)cc1 (stereo not drawn) [4b, N-[2-amino-3-cyano-4-(4-chloro-phenyl)-4H-chromene-7-yl]-4-methyl-benzene sulfonamide] | 256 (≈ 566 µM) | 128 (≈ 283 µM) | 152 (≈ 336 µM) | – | – | Neutral | 256 (≈ 566 µM) | – | 128 (≈ 283 µM) | Positive | 22.2 | 77.4 | –
COc1ccc(C2C(C#N)=C(N)Oc3cc(NS(=O)(=O)c4ccc(C)cc4)ccc32)cc1 (stereo not drawn) [1b, N-[2-amino-3-cyano-4-(4-methoxy-phenyl)-4H-chromene-7-yl]-4-methyl-benzene sulfonamide] | > 512 | 256 (≈ 572 µM) | 139 (≈ 311 µM) | – | – | Negative | > 512 | – | 256 (≈ 572 µM) | Neutral | 42.29 | 55 | –
COc1ccccc1C1C(C#N)=C(N)Oc2cc(NS(=O)(=O)c3ccc(C)cc3)ccc21 (stereo not drawn) [2b, N-[2-amino-3-cyano-4-(2-methoxy-phenyl)-4H-chromene-7-yl]-4-methyl-benzene sulfonamide] | > 512 | 128 (≈ 286 µM) | 229 (≈ 512 µM) | – | – | Negative | > 512 | – | 128 (≈ 286 µM) | Positive | – | – | 180 to 183
CC(=O)Nc1ccc(S(=O)(=O)Nc2ccc3c(c2)OC(N)=C(C#N)C3c2ccc(F)cc2)cc1 (stereo not drawn) [7b, N-[4-[2-amino-3-cyano-4-(4-fluoro-phenyl)-4H-chromene-7-ylsulfamoyl]-phenyl}-acetamide] | 128 (≈ 267 µM) | 128 (≈ 267 µM) | 182 (≈ 380 µM) | – | – | Positive | 128 (≈ 267 µM) | – | 128 (≈ 267 µM) | Positive | – | – | 230 to 233
COc1ccc(C2C(C#N)=C(N)Oc3cc(NS(=O)(=O)c4ccc(C)cc4)ccc32)cc1OC (stereo not drawn) [3b, N-[2-amino-3-cyano-4-(3,4-dimethoxy-phenyl)-4H-chromene-7-yl]-4-methyl-benzene sulfonamide] | > 512 | > 512 | 219 (≈ 459 µM) | – | – | Negative | > 512 | – | > 512 | neutral or negative; also recorded: Negative | – | – | 127 to 130
